Values joined by “and” are separate entries in the source; they are usually repeats but may differ in a detail not shown here. Identical values can stand only once. Like-named read-outs stand apart in the source and are kept apart here. Where only a bound is given, the exact number is not on record here.

One data set concerns pBR322. It counts as biochemical.
In data set [1] the test system is supercoiled pBR322 plasmid DNA. It counts as biochemical.
The nature of data set [2]: Stability of diazonium compounds (NMR in D2O with acetonitrile internal standard). It counts as physicochemical.
In data set [3] the test system is supercoiled pBR322 plasmid DNA. The note with it: read-out: EC50 value.
In data set [4] the test system is supercoiled pBR322 plasmid DNA.
Data set [5] has as its system linearized (EcoRV-HF-digested) pBR322 double stranded DNA.
The subject of data set [6] is supercoiled pBR322 plasmid DNA. The note with it: for EC50: 525 nm.

Method for HeLa cells: General cell culture protocol: HeLa cells were grown in DMEM growth media (GIBCO 11995065) with 10% FBS (GIBCO A5670401) in 75 cm^2 surface treated culture dishes (Fisherbrand FB012937) and were incubated in a cell culture chamber (37° C. with 5% CO2). Cells were kept at a maximum confluency of 80% and passaged up to 20 times. For each passage, the cells were washed with 1×PBS (GIBCO 20012027), detached from the plate by incubation with 0.25% Trypsin-EDTA (GIBCO 25200072) for 3-4 minutes in the cell culture chamber, and then diluted with growth media. The cells were spun down at 300×g at 4° C. for 5 minutes, resuspended with fresh growth media, and replated in a new flask.
Cell viability assay and IC50 procedure: The media in the cell culture dish was aspirated, and the cells were washed with 1×PBS. The cells were detached from the plate by 4-minute incubation with 0.25% Trypsin-EDTA in the cell culture chamber. The cells were then diluted with DMEM and were spun down at 300×g at 4° C. for 5 minutes. The media was aspirated, and the cell pellet was resuspended in fresh DMEM. The cells were counted and seeded in 6-well culture plates at 50,000 cells/well and incubated overnight. Alongside the 6-well plates, 35 mm glass bottom confocal plates (Fisher Scientific NC0409658) were also seeded with 50,000 cells/plate. 24 hours after the initial seeding, the media in the plates were aspirated and the cells were washed with 1×PBS. […] The wash buffer was aspirated from the plates and 2 mL of the corresponding diazonium dilutions was added to the respective wells in the 6-well plates, all in triplicate, in addition to the confocal plates. All plates were incubated in ambient light for 45 minutes in the cell culture hood and then for 1 hour in the cell culture chamber (37° C. with 5% CO2). Control wells with 2 mL 1×PBS pH 6.6 alone with no diazonium as well as additional control wells with 2 mL DMEM alone with no diazonium, all in triplicate, were also incubated alongside the wells with the diazonium solutions. The plates were then removed from the incubators and the solutions from all the dishes were aspirated and replaced with 2 mL of fresh DMEM. The plates were incubated in the cell culture chamber for 3 days. After the 3-day incubation, the respective cell viability of each well was measured using the PrestoBlue™ Cell Viability Procedure. To each well was added 200 μL of 10× PrestoBlue™ Cell Viability Reagent (ThermoFisher Scientific A13261) and the plates were then incubated in the cell culture chamber for 3 hours. The plates were then analyzed using a plate reader (SpectraMax iD5) by measuring the fluorescence at an excitation of 560 nm and emission of 590 nm. […]

In the case of `Nc1cccc2c(N)cccc12` [1,5-diaminonaphthalene, reference compound], the “cleavage of pBR322 (gel pattern)” value in the data set on pBR322 is “no cleavage was observed”.
`F[B-](F)(F)F.N#[N+]c1ccccc1` [Compound 1, benzenediazonium tetrafluoroborate]: the “DNA cleavage potency (in words)” value in data set [1] is reported as “limited activity”. Further, the EC50 (in general, the midpoint of the concentration-response curve) in data set [1] (read-out: EC50) was determined as 18800 nM.
For `COc1ccc([N+]#N)cc1.F[B-](F)(F)F` [Compound 5, 4-methoxy-benzene-1-diazonium tetrafluoroborate], the EC50 in data set [1] (read-out: EC50 value) stood at 69800 nM.
Same read-out and setting: to `N#[N+]c1ccc([N+](=O)[O-])c2ccccc12` [Compound 7, 4-nitro-naphthalene-1-diazonium tetrafluoroborate] belongs 531 nM.
Turning to `F[B-](F)(F)F.F[B-](F)(F)F.N#[N+]c1cccc2c([N+]#N)cccc12` [Compound 10, naphthalene-1,5-bisdiazonium tetrafluoroborate], in data set [1] (read-out: EC50 value), the EC50 was determined as 31.7 nM. For the same molecule, the diazonium/IS ratio in data set [2] (1 hour) was 0.59; in data set [2] (2 hours) it was 0.56; in data set [2] (6 hours), 0.49; in data set [2] (24 hours), 0.41; in data set [2] (T0 (immediately after sample preparation)), 0.62. Besides, the “cleavage of pBR322 (gel pattern)” value in the data set with pBR322 (500 nM, 525 nm irradiation 1.5 hours) is listed as “two new bands”.
Turning to “(R)-[1,1′-binaphthalene]-2,2′-bisdiazonium tetrafluoroborate [Compound 23]”, the EC50 in data set [1] (read-out: EC50 value) came to 42 nM.
Same read-out and setting: to “(S)-[1,1′-binaphthalene]-2,2′-bisdiazonium tetrafluoroborate [Compound 24]” belongs 140 nM.
As to “N^1,N^3,N^5-tris(benzene-4-diazonium)benzene-1,3,5-tricarboxamide tetrafluoroborate [Compound 29]”, the “DNA cleavage potency (in words)” value in data set [1] is given as “no notable improvement”. In addition, the EC50 in data set [1] (read-out: EC50 value) came to 101 nM.
On to “benzophenone-3,3′-bisdiazonium tetrafluoroborate [Compound 18]”, for which the EC50 in data set [1] (read-out: EC50 value) is 31.5 nM.
On the same count and under the same terms, to “benzophenone-4,4′-bisdiazonium tetrafluoroborate [Compound 17]” belongs 24 nM.
For the molecule “ethidium bisdiazonium tetrafluoroborate [Compound 26]”, the “DNA cleavage potency (in words)” value in data set [1] is on record as “only modest potency”. In data set [1] (read-out: EC50 value), the concentration giving a half-maximal response (EC50) was 136 nM.
For “tetrakis(benzene-4-diazonium)ethylene tetrafluoroborate [Compound 27]”, in that order: “excellent potency” and 33 nM.
For “tetrakis(benzene-4-diazonium)methane tetrafluoroborate [Compound 28]”, the “DNA cleavage potency (in words)” value in data set [1] is listed as “excellent potency”. For the same molecule, the EC50 in data set [1] is 0.00214 µg/mL; in data set [1] (read-out: EC50 value), 2.76 nM; in data set [3], 3.62 nM and 13.7 nM and 14.9 nM; in data set [4] (read-out: DNA cleavage EC50 value, in the dark without cysteine), 976 nM and ~1000 nM and 1000 nM; in data set [4] (read-out: EC50 value, presence of cysteine in the dark), 30.8 nM; in data set [5] (read-out: EC50 value, linearized pBR322, green light 525 nm, supercoiled pBR322 as internal standard) it was 126 nM. The EC50 is 172 nM in data set [6] (degassed deionized water) and 1.64 nM in data set [6] (standard deionized water, run alongside as control). Moreover, the “concentrations giving noticeable cleavage into low molecular weight fragments” value in data set [5] (pre-linearized pBR322 (Form III, 40 μM/bp), 525 nm light in water for 1 hour) is reported as at least 100 nM. The “plate confluency after 3 days” value in the data set with HeLa cells (1.25 μM) is given as “over 90%”; in the data set with HeLa cells (10 μM), “less than 10%”. Further, in the data set with HeLa cells (ambient light 45 min then 1 h at 37° C., 3-day incubation), the “IC50 (cell viability)” value is 5.23 µg/mL. In addition, the IC50 (as a rule, the concentration that inhibits the measured activity by half) in the data set with HeLa cells (read-out: IC50 (cell viability), ambient light 45 min then 1 h at 37° C., 3-day incubation) was found to be 6710 nM. Moreover, in data set [6], the “decrease in activity, degassed vs standard deionized water” value came to 2 log scale.

Source of the values: patent US20250170265A1 (priority 2023, published 2025).
